Source: patent publication US20180207228A1, “PEPTIDE COMBINATIONS AND USES THEREOF FOR TREATING GRASS ALLERGY” (ALK-Abelló A/S, priority 2015, published 2018)
Where no end group is shown, it is not given here.

How the values were obtained:
[1] = tested on: allergen specific T cells; assay: T cell proliferation assay (72 h) on donor derived T cell lines (TCL02/TCL03); assay type: cell-based, human; conditions: single peptide
Outline: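 CD8-depleted PBMCs from grass-allergic donors stimulated with natural grass allergen mix (nPhl p 1 0.5 μg/ml) to raise T cell lines; restimulated with irradiated APCs, allergens or PHA-P (0.5 μg/ml) plus rIL-2. Proliferation to overlapping 20-mer and selected 15-mer grass peptides tested with TCL02 (day 24) or TCL03 (day 34).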

[2] = tested on: grass pollen allergic donor derived TCL-03 lines; assay: Extended cross-reactivity study, proliferation on TCL03 DK1+DK2 (Study XR2), scoring; assay type: cell-based, human; conditions: study XR2; for Cross-reactivity score, Cyn d: homologue from Cyn d; for Cross-reactivity score, Dac g: homologue from Dac g; for Cross-reactivity score, Fes p: homologue from Fes p; for Cross-reactivity score, Lol p: homologue from Lol p; for Cross-reactivity score, Pas n: homologue from Pas n; for Cross-reactivity score, Pha a: homologue from Pha a; for Cross-reactivity score, Poa p: homologue from Poa p; for Cross-reactivity sum: scores of all species added; for Cross-reactivity/species: sum divided by the number of species measured
[3] = Peptide solubility by visual inspection; assay type: physicochemical; conditions: for Visual inspection after 60 min pH 7 / Visual inspection after centrifugation pH 7: 250 mM D-Mannitol and 25 mM sodium phosphate
Procedure: Water (pH 3-5) • 2. 250 mM D-Mannitol and 25 mM sodium acetate, pH 4.5 • 3. 250 mM D-Mannitol and 25 mM sodium phosphate, pH 7.0 • 4. […] Water (pH 3-5) • 2. 250 mM D-Mannitol and 25 mM sodium acetate, pH 4.5 • 3. 250 mM D-Mannitol and 25 mM sodium phosphate, pH 7.0 • 4. […] A subset of the peptides was selected as candidate peptides for a final peptide mixture. […] During the solubility studies the peptide-containing solutions were inspected visually before and after filtration for turbidity, and presence of particles/aggregates. In addition, presence of turbidity/particles/aggregates was also detected by optical density (OD) or absorbance of filtered material, but might also be detected by size-exclusion chromatography. Furthermore, Sub-visual particles may also be detected by dynamic light scattering (DLS) analysis on filtered and non-filtered peptide containing solutions. Samples were furthermore subjected to centrifugation to allow for the possible visual inspection of pelleted material.

[4] = Extended solubility and short term stability study (visual, U-HPLC recovery, DLS, 90LS, UV-VIS, sum of scores); conditions: for solubility: pH 4.5
Procedure: For that purpose, the peptides were provided as acetate salts (produced by Innovagen® at a >10 mg scale of manufacturing). To take into account batch-to-batch variations, some peptides were tested from other batches of the manufacturer Innovagen®, as well as from another manufacturer (Almac) and from in-house production. Solubility experiments were performed on peptide in solution in concentrations ranging from 0.5 mg/mL to 3 mg/mL (dry matter)—with the following solvents: • Water • Acetate buffer, pH 4.5 (25 mM sodium acetate containing 250 mM D-Mannitol) • Phosphate buffer, pH 7.0 (25 mM sodium phosphate containing 250 mM D-Mannitol) • Glycine buffer, pH 8.5 (25 mM glycine containing 250 mM D-Mannitol)
The solubility of the peptides was initially investigated by visual inspection and U-HPLC recovery. Visual inspection included assessment of turbidity and presence of particles/aggregates of each peptide solution before and after centrifugation as well as visual inspection of pelleted material. The visual inspection were reported as “clear solution”, “very small precipitation only visible with a magnifier”, “precipitation visible/turbid solution” or “more precipitation/turbid solution”. Filtration of peptide solutions were conducted using syringe based filters containing a polyethersulfone (PES) membrane chemistry and a pore size of 0.2 μm. The amount of the peptide in the supernatant of a filtered sample was determined using U-HPLC with reverse phase chromatography and recovery were determined as described in Example 5.
Peptide solutions were investigated at a time point of 1 hour after production, but were also repeated at later time point (e.g. 24. 48 or 96 hours) to investigate the stability of the peptides.
Peptide solutions were investigated to determine the presence of turbidity/particles/aggregates by use of optical density (OD) and change in UV-VIS absorbance at a wavelength of 320 nm, of the filtrate. […] In addition or as an alternative, the amount of the peptide in the supernatant of a filtered sample was determined using U-HPLC as described above, with the exception that the recovery was determined by dividing the peak area of the filtered sample in relation to the peak area in the original solution prior to filtration. See also Example 5 for further details regarding UV-VIS, and recovery measured by U-HPLC.
The peptides were scored in relation to the outcome of the above mentioned tests: For each peptide in a given buffer and at a given concentration, a sum of test scores was calculated and the sum used to rank the peptides according to solubility: • 1. […] DLS peak 1 number 3 nm gave a score of 1, 3-10 nm gave a score of 2, 10-100 nm gave a score of 3, >100 nm gave a score of 4. • 5. 90LS at 400 nm: Intensity <450 gave a score of 1, <800 gave a score of 2, >800 gave a score of 3. • 6. UV-VIS change in absorbance at 320 nm within 24 hours: 0.01 gave a score of 1, ≤0.05 gave a score of 2, 0.0.2 gave a score of 3 and >0.2 gave a score of 4.

[5] = 3 mg/mL, acetate salt, non-filtered
[6] = 3 mg/mL, acetate salt, non-filtered, after centrifugation

Row | solubility, 1st round of solubility screening [3] | Visual inspection after 60 min pH 7 [3, 5] | Visual inspection after centrifugation pH 7 [3, 6] | solubility in all the test samples (concentrations and pH tested), all solubility tests [4] | solubility in aqueous solutions and short-term stability [4] | solubility [4] | Visual inspection after 60 min pH 4.5 ([3]; 3 mg/mL, acetate salt, non-filtered, 250 mM D-Mannitol and 25 mM sodium acetate, pH 4.5) | Visual inspection after centrifugation pH 4.5 ([3]; 3 mg/mL, acetate salt, non-filtered, 250 mM D-Mannitol and 25 mM sodium acetate, pH 4.5, after centrifugation) | Substance | T cell response in % of the donors tested [1] | Cross-reactivity score, Cyn d ([2]; score 0 to 7) | Cross-reactivity score, Dac g ([2]; score 0 to 7) | Cross-reactivity score, Fes p ([2]; score 0 to 7) | Cross-reactivity score, Lol p ([2]; score 0 to 7) | Cross-reactivity score, Pas n ([2]; score 0 to 7) | Cross-reactivity score, Pha a ([2]; score 0 to 7) | Cross-reactivity score, Poa p ([2]; score 0 to 7) | Cross-reactivity sum [2] | Cross-reactivity/species [2] | solubility in aqueous solutions [3] | Cross-reactivity score, Sor h ([2]; homologue from Sor h, score 0 to 7)
1 | soluble | tread + | + | good solubility | sufficiently soluble | acceptable solubility | – | – | AGELELQFRRVKSKYPEGTK-OH [peptide 207] | ~40% | 0 | 3 | 6 | 6 | 0.5 | 6 | 1 | 22.5 | 3.2 | surprisingly good solubility in aqueous solutions | –
2 | soluble | – | – | good solubility | sufficiently soluble | acceptable solubility | – | – | GDEQKLRSAGELELQFRRVK-OH [compound 206] | – | 0 | 2 | 2 | 2 | 0 | 1 | 0.5 | 8 | 1 | – | 0.5
3 | soluble | tread + | ++ | – | sufficiently soluble | acceptable solubility | + particles, | ++ | KEDFLGSLVKEIPPRLLYAK-OH [peptide 222] | – | 1 | – | – | – | – | – | – | 1 | 1 | – | –
4 | soluble | – | – | – | sufficiently soluble | acceptable solubility | – | – | WLDAKSTWYGKPTGAGPKDN-OH [peptide 201] | – | – | – | – | – | – | – | – | – | – | – | –
